EC50 and Ki data for one compound are collected here from BindingDB's records for doi:10.1016/j.bmc.2018.05.045 (University of Arizona, 2018).

Experiment [1] addresses T1, Kappa-type opioid receptor (Homo sapiens, UniProt P41145). Briefly: Agonist activity at KOR (unknown origin) expressed in HEK cells assessed as reduction in cAMP accumulation by split luciferase assay.
Experiment [2] addresses T1, Kappa-type opioid receptor. Briefly: Displacement of [3H]U69593 from KOR (unknown origin) expressed in HEK cells. In general terms: Loss of bound radioactivity is the signal in a displacement assay; it reports binding, not function.

pEC50, pKi: −log10 of the molar value. Where a SMILES comes first, the peptide text is derived from it.

T1 sequence (P41145 whole entry): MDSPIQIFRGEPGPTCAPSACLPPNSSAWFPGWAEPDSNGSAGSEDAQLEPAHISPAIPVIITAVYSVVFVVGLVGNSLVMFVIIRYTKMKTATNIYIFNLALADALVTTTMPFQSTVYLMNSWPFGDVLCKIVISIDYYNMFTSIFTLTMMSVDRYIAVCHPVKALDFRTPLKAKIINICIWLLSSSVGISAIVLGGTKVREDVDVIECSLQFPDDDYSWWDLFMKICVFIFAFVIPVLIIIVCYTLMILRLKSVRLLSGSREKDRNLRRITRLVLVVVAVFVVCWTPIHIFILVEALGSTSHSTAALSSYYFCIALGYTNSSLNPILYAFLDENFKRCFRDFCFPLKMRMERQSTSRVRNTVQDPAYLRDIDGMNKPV

One may read the pEC50 as the negative decadic logarithm of the EC50, by convention in mol/L. For orientation: pKi means the Ki on a negative log10 scale, so that one unit is a factor of ten. A low value points to a high Ki. In the case of `CC1(C)SSC(C)(C)[C@H](NC(=O)[C@@H](N)Cc2ccc(O)cc2)C(=O)NCC(=O)N[C@@H](Cc2ccccc2)C(=O)N2CCN(CC2)C(=O)[C@H](Cc2ccccc2)NC(=O)CNC(=O)[C@H]1NC(=O)[C@@H](N)Cc1ccc(O)cc1` (HELM PEPTIDE1{Y.[Pen].G.F}|PEPTIDE2{Y.[Pen].G.F}|CHEM1{[C1CN([*:2])CCN1[*:1]]}$PEPTIDE1,PEPTIDE2,2:R3-2:R3|PEPTIDE1,CHEM1,4:R2-1:R1|PEPTIDE2,CHEM1,4:R2-1:R2$$$V2.0), in experiment [1], the pEC50 is 6.57. The compound further gave a pKi in experiment [2] of 8.25.
